Results reported in paper PMC9959130, “Effects of Side Chain and Peptide Bond Modifications on the Targeting Properties of Stabilized Minigastrin Analogs” (Pharmaceuticals, 2023).
Read-outs that look alike come from different tables or passages of the source. Each block holds one molecule with its values, some of them ahead of it. Where a SMILES comes first, the peptide text is derived from it. [ ]: non-standard residue; d: D form. The star is where a group is joined. DOTA = O=C(O)CN1CCN(CC(=O)O)CCN(CC(=O)*)CCN(CC(=O)O)CC1; NMeNle = CCCC[C@H](NC)C(=O)O

Experiments:
[1] = Binding to serum proteins (incubation in human serum, Sephadex G-50 size exclusion chromatography); type: in vitro ADME; conditions: 37 °C
Protocol: Protein binding was determined by incubation of the radiolabeled peptides in human serum at 37 °C (500 pmol/mL, n = 2). For the time points of 1, 4, and 24 h after incubation, samples of 25 µL were subjected to Sephadex G-50 size exclusion chromatography (GE Healthcare Illustra, Little Chalfont, UK). The column and the eluate were measured using the γ-counter and the percentage of protein binding was calculated.

[2] = Biodistribution in BALB/c nude mice bearing A431-CCK2R/A431-mock xenografts; type: in vivo; conditions: female, athymic BALB/c nude, mouse, iv, 20 pmol, total radioactivity, ~20 pmol, 4 h p.i. (indium-111 or lutetium-177), mean ± SD n = 4; for tissue uptake at 4 h: xenografted BALB/c nude mice, i.v.; for tissue to tissue ratio at 4 h: BALB/c nude mice
Protocol: The overall biodistribution and tumor targeting properties of selected radiolabeled peptides were evaluated in female athymic BALB/c nude mice (Charles River, Sulzfeld, Germany, age of 7 to 9 weeks). After tumor induction with 2 × 10^6 A431-CCK2R or A431-mock cells (subcutaneously injected in 200 μL DMEM into the right and left flank) and a waiting period of 10–14 days (sufficient to achieve tumors of ∼0.25 g), mice were randomly divided into groups of four and treated with a bolus injection of 150 µL of the injectable solution containing the radiolabeled peptide via a lateral tail vein to achieve an injected radioactivity of 150–200 kBq and a total injected peptide amount of ~20 pmol (n = 4 for each radiopeptide). For DOTA-[(N-Me)1Nal^8]MGS5, additional biodistribution studies were performed with gallium-68 (~0.5 MBq, 20 pmol) and lutetium-177 (~0.5 MBq, 20 pmol). The animals were euthanatized by cervical dislocation at 1 h (gallium-68) or 4 h p.i. (indium-111/ lutetium-177). The tumors and other tissues (blood, lung, heart, muscle, spleen, intestine, liver, kidney, stomach, and pancreas) were dissected, weighed, and the radioactivity measured in the γ-counter. The rest of the body and a standard of the solution injected was also measured together with the collected samples. The percentage of injected activity per gram of tissue (% IA/g) and the tumor-to-organ activity ratio of selected tissues were calculated for each mouse and time point studied. Origin software (Microcal Origin 6.1, Northampton, MA, USA) was used for statistical analysis (independent t-test for two populations; significance level p < 0.05).

[3] = Metabolic studies in BALB/c mice (intact radiopeptide by radio-HPLC); type: in vivo; conditions: i.v., 2 nmol, 10 min p.i., two animals per peptide; for Intact radiopeptide in kidney: kidney homogenate; for Intact radiopeptide in liver: liver homogenate
Protocol: All animal experiments were approved by the Austrian Ministry of Science (BMWF-66.011/0075- WF/V/3b/2016) and performed in accordance with the Austrian Animal Protection Act. Metabolic studies characterizing the stability of selected radioligands against enzymatic degradation were carried out in 7 to 8 week old female BALB/c mice (Charles River, Sulzfeld, Germany). The mice (two animals for each peptide) were intravenously injected into a lateral tail vein with 5–10 MBq of the ^111In-labeled peptide derivatives, corresponding to 2 nmol total peptide. At the time point of 10 min p.i. the animals were euthanatized by cervical dislocation. A sample of urine and blood was immediately collected. Liver and kidneys were dissected, mixed with 20 mM HEPES buffer pH 7.3 (1:1, w/v) and homogenized using an Ultra-Turrax T8 homogenizer (IKA-Werke, Staufen, Germany) for 1 min. All samples taken were analyzed by analytical HPLC using the low-sensitivity loop for urine and the high-sensitivity loop for blood, liver and kidney. Before injection into the HPLC system, all samples except urine were treated with ACN and diluted with water as described for stability studies in human serum. The percentage of intact radiopeptide in the analyzed samples was calculated by integration of the different peaks found in the radiochromatogram using Chromeleon Dionex Software (Version 7.2.9.11323).

[4] = In vitro stability in human serum (intact radiopeptide by radio-HPLC); type: in vitro ADME; conditions: fresh human serum, 37 °C, n = 2
Protocol: In vitro stability studies were performed in human serum (n = 2). The radiolabeled peptides (1000 pmol/mL) were incubated at 37 °C and a sample of 100 μL was taken at 1, 4, and 24 h after incubation. After the precipitation of proteins with ACN at 1:1.5 (v/v), centrifugation (14,000 rpm, 2 min, centrifuge 5424, Eppendorf AG, Germany) and dilution with water at 1:1 (v/v), an aliquot of 100 μL of this solution was analyzed by HPLC. Radioligand breakdown was monitored and the percentage of intact radiopeptide was calculated using Chromeleon Dionex Software (Version 7.2.9.11323). Additionally, the radiolabeled peptides (1000 pmol/mL) were incubated in PBS (n = 1) at room temperature to confirm the complex stability as a control.

SMILES: CCCC[C@@H](C(=O)N[C@@H](CC(=O)O)C(=O)N[C@@H](Cc1ccccc1)C(N)=O)N(C)C(=O)[C@H](Cc1c[nH]c2ccccc12)NC(=O)CNC(=O)[C@H](Cc1ccc(O)cc1)NC(=O)[C@H](C)NC(=O)[C@@H](CCC(=O)O)NC(=O)CN1CCN(CC(=O)O)CCN(CC(=O)O)CCN(CC(=O)O)CC1 [[^111In]In-DOTA-[Phe^8]MGS5] [metal not drawn] ({DOTA}-[dE]AYGW[NMeNle]DF-NH2)
Binding to Serum Proteins (%) ([1]; radiolabeled peptide (111In where no radiometal named), 500 pmol/mL, 24 h after incubation, Sephadex G-50, γ-counter, n = 2): 20%

SMILES: CCCC[C@@H](C(=O)N[C@@H](CC(=O)O)C(=O)N[C@@H](Cc1ccc2ccccc2c1)C(N)=O)N(C)C(=O)[C@H](Cc1c[nH]c2ccccc12)NC(=O)CNC(=O)[C@H](Cc1ccc(O)cc1)NC(=O)[C@H](C)NC(=O)[C@@H](CCC(=O)O)NC(=O)CN1CCN(CC(=O)O)CCN(CC(=O)O)CCN(CC(=O)O)CC1 [[^111In]In-DOTA-[2Nal^8]MGS5] [metal not drawn]
Intact radiopeptide in kidney [3]: 24.7 ± 0.3%
Intact radiopeptide in liver [3]: 83.9 ± 0.1%
Intact radiopeptide in blood [3]: 88.4 ± 0.4%
Intact radiopeptide in urine [3]: 28.2 ± 1.0%

The next lines start with the values.

tissue uptake at 4 h ([2]; A431-CCK2R xenograft, read-out: Uptake in A431-CCK2R xenograft): 35.1 ± 6.32 %ID/g
tissue uptake at 4 h ([2]; stomach, read-out: Uptake in stomach): 2.37 ± 0.33 %ID/g
fraction unbound at 4 h, 500 pmol/mL ([1]; human, radiolabeled peptide, 4 h after incubation, Sephadex G-50, n = 2): 0.746
fraction unbound at 24 h, 500 pmol/mL ([1]; radiolabeled peptide (111In where no radiometal named), 24 h after incubation, Sephadex G-50, γ-counter, n = 2): 0.713
SMILES: CCCC[C@@H](C(=O)N[C@@H](CC(=O)O)C(=O)N(C)[C@@H](Cc1cccc2ccccc12)C(N)=O)N(C)C(=O)[C@H](Cc1c[nH]c2ccccc12)NC(=O)CNC(=O)[C@H](Cc1ccc(O)cc1)NC(=O)[C@H](C)NC(=O)[C@@H](CCC(=O)O)NC(=O)CN1CCN(CC(=O)O)CCN(CC(=O)O)CCN(CC(=O)O)CC1 [[^177Lu]Lu-DOTA-[(N-Me)1Nal^8]MGS5, metal not drawn]

Intact radiopeptide in kidney [3]: 7.4 ± 8.6%
Intact radiopeptide in liver [3]: 78.1 ± 3.7%
Intact radiopeptide in blood [3]: 71.7 ± 6.2%
Intact radiopeptide in urine [3]: 1.3 ± 0.2%
SMILES: CCCC[C@@H](C(=O)N[C@@H](CC(=O)O)C(=O)N[C@@H](Cc1cccc2ccccc12)C(=O)NC)N(C)C(=O)[C@H](Cc1c[nH]c2ccccc12)NC(=O)CNC(=O)[C@H](Cc1ccc(O)cc1)NC(=O)[C@H](C)NC(=O)[C@@H](CCC(=O)O)NC(=O)CN1CCN(CC(=O)O)CCN(CC(=O)O)CCN(CC(=O)O)CC1 [[^111In]In-DOTA-MGS5[NHCH3]] [metal not drawn]

remaining at 4 h, 1000 pmol/mL ([4]; human, radiolabeled peptide, 4 h after incubation): 99.3 ± 0.9%
remaining at 24 h, 1000 pmol/mL ([4]; radiolabeled peptide (111In where no radiometal named), 24 h after incubation): 99.6 ± 0.1%
tissue to tissue ratio at 4 h ([2]; A431-CCK2R xenograft / blood, A431-CCK2R xenograft, read-out: tumor-to-organ ratio: blood): 281 ± 88.5
tissue to tissue ratio at 4 h ([2]; A431-CCK2R xenograft / kidney, A431-CCK2R xenograft, read-out: tumor-to-organ ratio: kidney): 7.55 ± 0.48
tissue to tissue ratio at 4 h ([2]; A431-CCK2R xenograft / stomach, A431-CCK2R xenograft, read-out: tumor-to-organ ratio: stomach): 11.5 ± 1.82
tissue uptake at 4 h ([2]; A431-mock xenograft, read-out: Uptake in A431-mock xenograft): 0.38 ± 0.08 %ID/g
tissue uptake at 4 h ([2]; blood, read-out: Uptake in blood): 0.19 ± 0.07 %ID/g
tissue uptake at 4 h ([2]; heart, read-out: Uptake in heart): 0.14 ± 0.03 %ID/g
tissue uptake at 4 h ([2]; intestine, read-out: Uptake in intestine): 0.81 ± 0.1 %ID/g
tissue uptake at 4 h ([2]; kidneys, read-out: Uptake in kidneys): 6.33 ± 0.89 %ID/g
tissue uptake at 4 h ([2]; liver, read-out: Uptake in liver): 1.39 ± 0.16 %ID/g
tissue uptake at 4 h ([2]; lung, read-out: Uptake in lung): 0.21 ± 0.07 %ID/g
tissue uptake at 4 h ([2]; muscle, read-out: Uptake in muscle): 0.12 ± 0.05 %ID/g
tissue uptake at 4 h ([2]; spleen, read-out: Uptake in spleen): 0.32 ± 0.05 %ID/g
SMILES: CCCC[C@@H](C(=O)N[C@@H](CC(=O)O)C(=O)N(C)[C@@H](Cc1cccc2ccccc12)C(N)=O)N(C)C(=O)[C@H](Cc1c[nH]c2ccccc12)NC(=O)CNC(=O)[C@H](Cc1ccc(O)cc1)NC(=O)[C@H](C)NC(=O)[C@@H](CCC(=O)O)NC(=O)CN1CCN(CC(=O)O)CCN(CC(=O)O)CCN(CC(=O)O)CC1 [[^111In]In-DOTA-[(N-Me)1Nal^8]MGS5, metal not drawn]
